The target in one assay is T1, ATR/ATRIP enzyme (Homo sapiens, UniProt Q13535).
T1 construct: purchased Eurofins 14-953
Description: ATR enzyme activity experiment (HTRF). The format is biochemical. The settings on record: p53 substrate, 30 min room temperature, read-out: IC50 (nM), inhibitory effect on ATR kinase activity. The method, then: The mixture was centrifuged at 1000 rpm for 1 minute, and reacted at room temperature protected from light for 30 minutes. Then 5 μL of EDTA stop solution (250 mM) was added to stop the reaction.

For assay [1], the system named is human lung cancer NCI-H460 cell. Kind of assay: MTT proliferation assay, NCI-H460. The settings on record: NCI-H460, 96 h, MTT, 4 days, read-out: IC50 (nM), proliferation of NCI-H460 cell. The format is cell-based. The method, then: The cells were digested by trypsinase and centrifuged at 800 rpm for 5 minutes, the supernatant was discarded, and the residual was resuspended with fresh medium […]) and counted.
The cells were seeded into 96-well cell culture plate with a density of 2000/4000 cells per well and incubated overnight in a 5% CO2 incubator at 37° C. […] 5 μL diluent of each concentration was added to 120 μL of medium (25 times diluted) and mixed by shaking. The overnight cell plates were taken and the culture medium was removed, 195 μL of fresh medium was added to each well, and 5 μL of diluted medium containing the corresponding concentration of the test compound was added respectively (the final concentration of DMSO is 1%), and the culture plate was then placed in a 5% CO2 incubator at 37° C. for 4 days. After removing the original solution, 100 μL of fresh serum-free DMEM medium containing MTT (0.5 mg/mL) was added to each well, the culture was continued. […] Cell viability (%)=(ODcompound−ODbackground)/(ODDMSO−ODbackground)×100. GraphPad Prism 6.0 was used to analyze the data. The inhibitory activity of compounds on cell proliferation was plotted based on cell viability and the logarithm of compound concentration. The IC50 value was fitted by a sigmoidal dose response curve equation […], wherein C was the concentration of compound.

In assay [2] the test system is HCT116 (human colorectal adenocarcinoma cell). Kind of assay: MTT proliferation assay of Example 1, HCT116. The conditions noted are these: HCT-116, 96 h, 4 days. The format is cell-based. The method, then:
(§1) The cells were digested by trypsinase and centrifuged at 800 rpm for 5 minutes, the supernatant was discarded, and the residual was resuspended with fresh medium (1640 medium+10% FRS) and counted. The cells were seeded into 96well cell culture plate with a density of 2000/4000 cells per well and incubated overnight in a 5% CO2 incubator at 37° C. The stock solutions of the test substances were serially diluted to 8 concentrations by DMSO at the ratios of 1:3 and 1:10, respectively. 5 μL diluent of each concentration was added to […] (25 times diluted) and mixed by shaking. The overnight cell plates were taken and the culture medium was removed, 195 μL of fresh medium was added to each well, and 5 μL of diluted medium containing the corresponding concentration of the test compound was added respectively (the final concentration of DMSO is 1%), and the culture plate was then placed in a 5% CO2 incubator at 37° C for 4 days. After removing the original solution, […] of fresh serum-free DMEM medium containing MTT (0.5 mg/mL) was added to each well, the culture was continued. After 4 hours, the original solution was removed, 100 μL, of DMSO was added to each well, the 96-well plates were shaken for 10 minutes in the dark and placed in a multi-function reader to read the absorbance at the wavelength of 552/690 nm. […]
For orientation: Tetrazolium dyes change colour on reduction, which living cells bring about.

The test system of assay [3] is human ovarian cancer OVCAR-3 cell. Description: MTT proliferation assay of Example 1, OVCAR-3. The conditions noted are these: OVCAR-3, 96 h, 4 days. The format is cell-based. The procedure: as §1
The test system of assay [4] is human large cell lung cancer NCI-H460 cell. Kind of assay: MTT proliferation assay of Example 1, NCI-H460. The settings on record: NCI-H460, 96 h, 4 days. The format is cell-based. The procedure:
as §1

Each structure is given as a SMILES string.

This passage reports IC50 results from patent US20240059695A1, “SUBSTITUTED IMIDAZO[1,5-b]PYRIDAZINE COMPOUNDS AS KINASE INHIBITORS AND USE THEREOF” (IMPACT THERAPEUTICS (SHANGHAI), INC, priority 2020, published 2024).

T1 sequence (Q13535 whole entry): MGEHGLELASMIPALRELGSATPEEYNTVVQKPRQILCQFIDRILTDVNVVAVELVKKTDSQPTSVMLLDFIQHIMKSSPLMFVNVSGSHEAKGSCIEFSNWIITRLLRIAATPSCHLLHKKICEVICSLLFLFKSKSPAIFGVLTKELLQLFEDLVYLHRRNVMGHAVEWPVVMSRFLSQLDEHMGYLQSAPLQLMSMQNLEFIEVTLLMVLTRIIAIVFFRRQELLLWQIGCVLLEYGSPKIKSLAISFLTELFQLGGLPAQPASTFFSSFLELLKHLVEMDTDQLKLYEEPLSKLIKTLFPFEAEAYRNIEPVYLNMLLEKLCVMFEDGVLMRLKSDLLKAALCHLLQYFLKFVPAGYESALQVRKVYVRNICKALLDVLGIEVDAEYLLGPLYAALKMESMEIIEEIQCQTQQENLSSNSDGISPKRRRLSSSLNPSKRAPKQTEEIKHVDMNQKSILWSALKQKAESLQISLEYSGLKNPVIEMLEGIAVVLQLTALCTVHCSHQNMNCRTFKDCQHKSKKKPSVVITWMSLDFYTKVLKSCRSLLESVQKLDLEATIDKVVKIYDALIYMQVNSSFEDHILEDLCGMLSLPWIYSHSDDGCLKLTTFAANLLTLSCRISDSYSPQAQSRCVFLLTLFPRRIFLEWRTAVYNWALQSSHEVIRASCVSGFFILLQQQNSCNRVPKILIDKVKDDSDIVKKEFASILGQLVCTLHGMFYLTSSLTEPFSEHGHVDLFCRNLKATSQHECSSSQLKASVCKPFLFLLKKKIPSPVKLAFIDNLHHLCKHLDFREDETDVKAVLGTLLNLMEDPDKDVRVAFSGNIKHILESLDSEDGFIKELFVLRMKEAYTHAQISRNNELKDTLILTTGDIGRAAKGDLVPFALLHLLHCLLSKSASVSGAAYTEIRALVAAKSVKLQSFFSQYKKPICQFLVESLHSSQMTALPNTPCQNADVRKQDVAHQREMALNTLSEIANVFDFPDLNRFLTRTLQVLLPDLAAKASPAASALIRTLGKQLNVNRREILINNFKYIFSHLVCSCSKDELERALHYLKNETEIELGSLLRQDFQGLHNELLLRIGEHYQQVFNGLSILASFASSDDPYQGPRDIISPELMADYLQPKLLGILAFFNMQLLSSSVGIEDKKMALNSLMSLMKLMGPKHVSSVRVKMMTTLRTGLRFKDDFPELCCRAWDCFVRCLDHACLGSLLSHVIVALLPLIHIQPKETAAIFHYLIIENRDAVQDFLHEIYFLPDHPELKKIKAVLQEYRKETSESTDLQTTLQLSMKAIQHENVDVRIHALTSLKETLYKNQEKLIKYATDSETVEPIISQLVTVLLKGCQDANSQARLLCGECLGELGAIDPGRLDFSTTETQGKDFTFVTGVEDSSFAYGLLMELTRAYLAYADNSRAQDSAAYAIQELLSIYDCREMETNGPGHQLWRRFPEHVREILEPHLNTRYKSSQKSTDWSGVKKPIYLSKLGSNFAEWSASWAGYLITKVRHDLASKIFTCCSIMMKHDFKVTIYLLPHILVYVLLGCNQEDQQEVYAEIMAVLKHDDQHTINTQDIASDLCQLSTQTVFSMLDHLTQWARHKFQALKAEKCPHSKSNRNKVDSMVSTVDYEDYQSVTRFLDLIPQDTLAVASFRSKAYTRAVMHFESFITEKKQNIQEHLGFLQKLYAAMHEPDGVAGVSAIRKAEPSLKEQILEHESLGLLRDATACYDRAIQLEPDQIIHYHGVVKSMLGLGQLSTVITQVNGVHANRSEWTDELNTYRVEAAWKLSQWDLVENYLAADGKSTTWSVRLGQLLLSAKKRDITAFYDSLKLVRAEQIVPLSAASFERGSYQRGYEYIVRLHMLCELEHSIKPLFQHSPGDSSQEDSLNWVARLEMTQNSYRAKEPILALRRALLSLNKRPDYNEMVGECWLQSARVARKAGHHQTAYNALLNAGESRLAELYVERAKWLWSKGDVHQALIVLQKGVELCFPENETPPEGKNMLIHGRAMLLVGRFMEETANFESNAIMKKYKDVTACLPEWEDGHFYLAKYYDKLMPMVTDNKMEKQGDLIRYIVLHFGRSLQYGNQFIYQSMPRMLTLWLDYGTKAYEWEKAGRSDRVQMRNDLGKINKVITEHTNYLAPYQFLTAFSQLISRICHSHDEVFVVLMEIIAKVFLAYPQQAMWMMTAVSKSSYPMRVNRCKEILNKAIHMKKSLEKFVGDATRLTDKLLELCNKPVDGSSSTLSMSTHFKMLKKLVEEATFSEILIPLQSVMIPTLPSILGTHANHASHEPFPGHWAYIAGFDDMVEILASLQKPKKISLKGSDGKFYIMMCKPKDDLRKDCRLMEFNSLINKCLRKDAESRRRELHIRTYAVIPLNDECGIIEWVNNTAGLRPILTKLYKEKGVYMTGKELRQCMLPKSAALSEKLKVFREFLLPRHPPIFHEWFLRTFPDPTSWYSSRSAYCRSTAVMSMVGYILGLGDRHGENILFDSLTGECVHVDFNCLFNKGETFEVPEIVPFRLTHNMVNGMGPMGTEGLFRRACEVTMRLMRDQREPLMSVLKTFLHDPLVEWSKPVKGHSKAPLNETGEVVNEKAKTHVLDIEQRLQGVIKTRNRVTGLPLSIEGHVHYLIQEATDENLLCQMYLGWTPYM
T1 sequence (Q8WXE1 whole entry partner): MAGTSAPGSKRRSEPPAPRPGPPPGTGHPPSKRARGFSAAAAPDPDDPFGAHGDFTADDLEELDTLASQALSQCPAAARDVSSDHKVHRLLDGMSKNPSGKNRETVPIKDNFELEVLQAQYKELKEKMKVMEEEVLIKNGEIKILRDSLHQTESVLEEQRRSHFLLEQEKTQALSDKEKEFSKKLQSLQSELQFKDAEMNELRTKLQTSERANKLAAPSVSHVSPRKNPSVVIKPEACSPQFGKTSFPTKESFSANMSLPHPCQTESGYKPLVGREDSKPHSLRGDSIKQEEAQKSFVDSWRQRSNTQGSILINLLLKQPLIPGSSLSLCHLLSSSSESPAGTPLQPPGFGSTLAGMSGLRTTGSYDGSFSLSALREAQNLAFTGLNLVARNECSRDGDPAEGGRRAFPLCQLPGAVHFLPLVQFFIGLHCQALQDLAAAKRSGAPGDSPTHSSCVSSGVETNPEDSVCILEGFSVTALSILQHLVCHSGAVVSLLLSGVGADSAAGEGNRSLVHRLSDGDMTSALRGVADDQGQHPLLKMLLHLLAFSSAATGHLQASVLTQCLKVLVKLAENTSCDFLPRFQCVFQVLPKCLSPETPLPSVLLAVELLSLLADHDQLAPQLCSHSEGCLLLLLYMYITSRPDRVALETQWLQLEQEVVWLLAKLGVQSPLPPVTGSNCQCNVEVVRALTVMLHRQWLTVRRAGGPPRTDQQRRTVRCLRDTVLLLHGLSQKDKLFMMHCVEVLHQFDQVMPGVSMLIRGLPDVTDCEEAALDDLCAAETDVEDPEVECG

For the compound `Cc1nc(-c2ccn[nH]2)n2nc(N3CCOC[C@H]3C)cc(-c3ccnn3C)c12` [Example 1, (R)-3-methyl-4-(5-methyl-4-(1-methyl-1H-pyrazol-5-yl)-7-(1H-pyrazol-5-yl)imidazo[1,5-b]pyridazin-2-yl)morpholine], the IC50 at ATR/ATRIP enzyme came to 1 nM; in assay [1], 16.5 nM; in assay [2], 22.5 nM; in assay [3], 182 nM; in assay [4], 19 nM.
